In patent publication US5298411A, “Glucose dehydrogenase from pseudomonas” (Toyo Boseki Kabushiki Kaisha, priority 1990, dated 1994):
Read-outs that look alike come from different tables or passages of the source.

What was measured:
Assay type in all cases: biochemical, Pseudomonas sp. FH1227
[1] = system: glucose dehydrogenase (EC1.1.1.47); test: Substrate specificity of the glucose dehydrogenase (enzyme activity determination); conditions: for Relative activity (%): Substrate (100 mM), β-D-glucose = 100.0
Source text: (2) Substrate specificity
(§1) (11) Enzyme activity determination
(A) 0.1M Tris-HCl buffer, pH 8.0
(§2) Calculation equation: [formula]
1.0=optical path length (cm)

[2] = system: glucose dehydrogenase (EC1.1.1.47); test: Km value determination
[3] = system: glucose dehydrogenase (EC1.1.1.47)
Procedure: as §1
The enzyme activity was determined by taking the enzyme activity producing 1 micromole of NADH per 1 minute under the conditions mentioned below as 1 unit.
1. The following reaction mixture is prepared in a cuvette (d=1 cm) and preheated at 37° C. for about 5 minutes.
2. An enzyme solution (0.05 ml) is added thereto, and the mixture is gently stirred. The change of absorbance at 340 nm is recorded for 5 minutes using a spectrophotometer controlled at 37° C. with water as the control. The change of absorbance per 1 minute is estimated on the basis of the linear portion from minute 2 to minute 5. (ΔOD test)
3. The blank test is conducted by following the same procedure as above except that 0.05 ml of […] (with phosphate buffer, pH 7.0) is used in place of the enzyme solution, to estimate the change in absorbance per 1 minute. (ΔOD blank)
as §2

[4] = read-out: Km value to the coenzyme
[5] = inhibitor concentration 2.0 × 10^-3 M, non added = 100.0

Compound	Relative activity (%) [1] [%]	also measured
2-deoxy-glucose	119.7	Substrate specificity [1]: specifically acts on
O=C(CO)[C@@H](O)[C@H](O)[C@H](O)CO [D-fructose]	0.8	
OC[C@H]1OC(O)[C@H](O)[C@@H](O)[C@H]1O (stereo partly drawn) [D-galactose]	0.1	
OC[C@H]1O[C@@H](O[C@H]2[C@H](O)[C@@H](O)C(O)O[C@@H]2CO)[C@H](O)[C@@H](O)[C@H]1O (stereo partly drawn) [D-lactose]	1.2	
OC[C@@H](O)[C@@H](O)[C@H](O)[C@H](O)CO [D-mannitol]	0.0	
OC[C@H]1OC(O)[C@@H](O)[C@@H](O)[C@@H]1O (stereo partly drawn) [D-mannose]	2.4	
OC[C@@H](O)[C@@H](O)[C@H](O)[C@@H](O)CO [D-sorbitol]	0.1	
OC[C@@H]1OC(O)[C@@H](O)[C@H](O)[C@H]1O (stereo partly drawn) [L-glucose]	0.0	
O=C(CO)[C@@H](O)[C@H](O)[C@@H](O)CO [L-sorbose]	0.3	
NC(=O)c1ccc[n+]([C@@H]2O[C@H](COP(=O)([O-])OP(=O)(O)OC[C@H]3O[C@@H](n4cnc5c(N)ncnc54)[C@H](OP(=O)(O)O)[C@@H]3O)[C@@H](O)[C@H]2O)c1 [NADP]		Km [2, 4]: 0.0407 mM
NC(=O)c1ccc[n+]([C@@H]2O[C@H](COP(=O)([O-])OP(=O)(O)OC[C@H]3O[C@@H](n4cnc5c(N)ncnc54)[C@H](O)[C@@H]3O)[C@@H](O)[C@H]2O)c1 [NAD]		Km [2, 4]: 0.308 mM
O[C@H]1[C@H](O)[C@@H](O)[C@H](O)[C@@H](O)[C@H]1O [inositol]	0.2	
OC[C@H]1O[C@H](O[C@H]2[C@H](O)[C@@H](O)[C@H](O)O[C@@H]2CO)[C@H](O)[C@@H](O)[C@@H]1O [maltose]	3.9	
[Cl][Hg][Cl] [mercury chloride]		Inhibition of the enzyme [3]: inhibited; Relative activity (%) [3, 5]: 5.9%
O=C(O)CI [monoiodoacetate]		Inhibition of the enzyme [3]: inhibited; Relative activity (%) [3]: 0.4%
OC[C@H]1O[C@@](CO)(O[C@H]2O[C@H](CO)[C@@H](O)[C@H](O)[C@H]2O)[C@@H](O)[C@@H]1O [saccharose]	0.0	
O=[N+]([O-])[O-].[Ag+] [silver nitrate]		Inhibition of the enzyme [3]: inhibited; Relative activity (%) [3, 5]: 7.1%
OC[C@H]1O[C@@H](O)[C@H](O)[C@@H](O)[C@@H]1O [β-D-glucose]	100.0	Substrate specificity [1]: specifically acts on; Km ([2]; coenzyme NAD, read-out: Km value to β-D-glucose): 13.8 mM; Km ([2]; coenzyme NADP, read-out: Km value to β-D-glucose): 12.5 mM
xylose	8.9	
